Values joined by “and” are separate entries in the source; they are usually repeats but may differ in a detail not shown here. Identical values can stand only once.
Details: Liquid

CC(C)(C)c1ccc(C(C)(C)C)cc1 [1,4-bis(1,1-dimethylethyl)benzene]
Transpiration method
Details	vapor or sublimation pressure [kPa]
354.15 K	0.3792
356.45 K	0.4257
358.95 K	0.4877
361.75 K	0.5742
364.25 K	0.6537
366.45 K	0.7231
366.55 K	0.7158
369.15 K	0.8057
372.05 K	0.9399
374.15 K	1.036
376.45 K	1.171
379.75 K	1.376
381.75 K	1.507
383.25 K	1.647

CC(C)(C)c1cc(C(C)(C)C)cc(C(C)(C)C)c1 [1,3,5-tri-tert-butylbenzene]
Transpiration method
Details	vapor or sublimation pressure [kPa]
352.15 K	0.1311
354.45 K	0.1544
356.65 K	0.1766
358.95 K	0.2039
359.15 K	0.2029
361.35 K	0.2292
362.05 K	0.2407
363.45 K	0.2577
365.15 K	0.2888
367.45 K	0.3257
370.15 K	0.3801
372.65 K	0.4354
374.95 K	0.4944
377.35 K	0.5671
379.55 K	0.6317
382.65 K	0.7387

Cc1cc(C(C)(C)C)cc(C(C)(C)C)c1 [3,5-di-tert-butyltoluene]
Transpiration method
Details	vapor or sublimation pressure [kPa]
308.25 K	0.01666
310.65 K	0.01931
313.35 K	0.02366
315.45 K	0.02884
317.95 K	0.03401
320.45 K	0.04037
323.05 K	0.04906
325.55 K	0.05841
327.95 K	0.06909
330.55 K	0.08097
333.05 K	0.09656
335.55 K	0.1131
338.15 K	0.1302
340.65 K	0.1549
343.05 K	0.1773
345.55 K	0.2067
348.1 K	0.2475
350.45 K	0.2845
353.05 K	0.3277
355.65 K	0.3743
358.15 K	0.4358

Details	vapor or sublimation pressure
379.62 K	1.318 kPa
379.86 K	1.338 kPa
380.13 K	1.358 kPa
393.09 K	2.478 kPa
393.16 K	2.483 kPa
393.19 K	2.483 kPa
393.25 K	2.488 kPa
402.75 K	3.746 kPa
402.76 K	3.746 kPa
402.77 K	3.746 kPa
410.74 K	5.173 kPa
410.81 K	5.179 kPa
410.83 K	5.184 kPa
410.85 K	5.189 kPa
428.47 K	10.05 kPa
428.48 K	10.05 kPa
439.99 K	14.94 kPa
440 K	14.94 kPa
449.13 K	20.06 kPa and 20.07 kPa
449.14 K	20.06 kPa
449.15 K	20.07 kPa
449.2 K	20.09 kPa
449.21 K	20.09 kPa
449.22 K	20.1 kPa
456.12 K	24.89 kPa
456.13 K	24.89 kPa
456.14 K	24.89 kPa
462.5 K	30.11 kPa
462.52 K	30.11 kPa
467.98 K	35.24 kPa
472.54 K	40.02 kPa
478.05 K	46.5 kPa
478.06 K	46.5 kPa
482.73 K	52.54 kPa and 52.65 kPa and 52.66 kPa
482.76 K	52.69 kPa
482.77 K	52.7 kPa
487.56 K	59.65 kPa
487.57 K	59.67 kPa
487.58 K	59.69 kPa
491.67 K	66.2 kPa and 66.19 kPa
491.68 K	66.21 kPa
495.5 K	72.78 kPa
495.53 K	72.83 kPa
498.98 K	79.21 kPa
498.99 K	79.22 kPa
503.36 K	87.92 kPa and 87.93 kPa
505.71 K	92.91 kPa
505.72 K	92.91 kPa
508.06 K	98.13 kPa
508.07 K	98.13 kPa
508.08 K	98.17 kPa
508.09 K	98.18 kPa
509.38 K	101.13 kPa and 101.14 kPa and 101.15 kPa
509.93 K	102.44 kPa
509.94 K	102.45 kPa
510.55 K	103.88 kPa
510.56 K	103.87 kPa and 103.88 kPa

CC(c1ccccc1)C(C)(C)C (stereo unspecified) [(1,2,2-trimethylpropyl)benzene]
Transpiration method
Details	vapor or sublimation pressure [kPa]
296 K	0.04082
298.5 K	0.04885
301 K	0.05923
303.5 K	0.07018
305.9 K	0.08326
308.4 K	0.09874
310.9 K	0.1175
313.4 K	0.1378
315.9 K	0.1579
318.3 K	0.185
320.8 K	0.2193
323.3 K	0.2551
325.8 K	0.292

Reference: the NIST ThermoML archive (doi:10.1016/j.fluid.2008.04.016)
